Laboratory results published in ChEMBL document CHEMBL1201862, “PubChem BioAssay data set” (2004).
The source made the active and inactive calls.

Columns and labels:
[1] = target: T1, Calpain-2 catalytic subunit (Sus scrofa, UniProt P43367); assay: pig calpain II inhibitor potency, dose response, biochemical, fluorogenic peptide substrate (AID 1420); format: functional
T1 sequence (P43367 whole entry): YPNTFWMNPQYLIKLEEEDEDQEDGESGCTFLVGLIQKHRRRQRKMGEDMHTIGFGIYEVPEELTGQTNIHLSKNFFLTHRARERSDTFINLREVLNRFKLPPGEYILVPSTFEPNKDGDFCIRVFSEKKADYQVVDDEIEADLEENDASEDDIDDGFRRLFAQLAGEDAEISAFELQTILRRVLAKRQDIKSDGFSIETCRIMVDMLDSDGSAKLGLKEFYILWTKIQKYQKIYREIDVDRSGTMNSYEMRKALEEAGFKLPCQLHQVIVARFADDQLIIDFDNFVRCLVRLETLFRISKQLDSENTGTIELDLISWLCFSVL

[2] = target: T2, Aminopeptidase N (Plasmodium falciparum FcB1/Columbia, UniProt O96935); assay: P. falciparum M1AAP inhibitors, biochemical, fluorogenic H-Leu-NHMec substrate, 1536-well (AID 1445); design: species or system Plasmodium falciparum 3D7, 3D7
T2 sequence (O96935 whole entry): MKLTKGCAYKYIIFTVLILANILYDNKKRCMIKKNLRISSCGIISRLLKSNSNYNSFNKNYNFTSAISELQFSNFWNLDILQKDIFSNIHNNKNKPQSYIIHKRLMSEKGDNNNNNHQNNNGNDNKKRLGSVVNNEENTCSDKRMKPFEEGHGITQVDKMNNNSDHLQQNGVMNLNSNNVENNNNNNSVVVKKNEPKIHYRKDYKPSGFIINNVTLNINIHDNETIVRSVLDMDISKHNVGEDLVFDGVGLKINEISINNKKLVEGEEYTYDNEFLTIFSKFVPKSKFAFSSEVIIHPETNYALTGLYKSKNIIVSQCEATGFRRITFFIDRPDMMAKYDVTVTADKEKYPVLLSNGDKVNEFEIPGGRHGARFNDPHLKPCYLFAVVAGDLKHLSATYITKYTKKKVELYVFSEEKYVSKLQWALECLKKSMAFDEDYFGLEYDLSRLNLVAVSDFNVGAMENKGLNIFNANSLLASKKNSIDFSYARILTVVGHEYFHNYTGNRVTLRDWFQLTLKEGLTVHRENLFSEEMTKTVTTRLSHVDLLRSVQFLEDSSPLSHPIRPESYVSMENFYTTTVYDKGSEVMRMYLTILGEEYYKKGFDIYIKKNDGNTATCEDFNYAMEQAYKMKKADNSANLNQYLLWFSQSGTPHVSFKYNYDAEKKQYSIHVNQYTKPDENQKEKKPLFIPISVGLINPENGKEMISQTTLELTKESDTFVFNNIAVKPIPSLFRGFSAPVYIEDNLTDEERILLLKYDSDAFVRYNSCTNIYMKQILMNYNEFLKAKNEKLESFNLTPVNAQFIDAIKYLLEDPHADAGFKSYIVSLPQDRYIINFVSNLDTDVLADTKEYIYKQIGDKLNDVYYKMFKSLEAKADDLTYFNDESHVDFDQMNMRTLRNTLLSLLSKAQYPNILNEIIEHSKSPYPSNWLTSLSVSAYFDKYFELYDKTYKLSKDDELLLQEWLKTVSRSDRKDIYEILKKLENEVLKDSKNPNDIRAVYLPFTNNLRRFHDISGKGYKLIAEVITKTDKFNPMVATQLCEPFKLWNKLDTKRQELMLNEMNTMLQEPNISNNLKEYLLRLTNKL

[3] = Luminescence Cell-Based Dose Retest to Confirm Inhibitors of Cancer Stem Cells. [Related pubchem assays (depositor defined):AID2717, AID2721]; format: functional; conditions: Homo sapiens
[4] = target: T3, Short transient receptor potential channel 4 (Mus musculus, UniProt Q9QUQ5); assay: mouse TRPC4 channel activators, dose response, cell-based, HEK293 TRPC4/mu-opioid, Fluo-4 calcium (AID 434937); format: functional
T3 sequence (Q9QUQ5 whole entry): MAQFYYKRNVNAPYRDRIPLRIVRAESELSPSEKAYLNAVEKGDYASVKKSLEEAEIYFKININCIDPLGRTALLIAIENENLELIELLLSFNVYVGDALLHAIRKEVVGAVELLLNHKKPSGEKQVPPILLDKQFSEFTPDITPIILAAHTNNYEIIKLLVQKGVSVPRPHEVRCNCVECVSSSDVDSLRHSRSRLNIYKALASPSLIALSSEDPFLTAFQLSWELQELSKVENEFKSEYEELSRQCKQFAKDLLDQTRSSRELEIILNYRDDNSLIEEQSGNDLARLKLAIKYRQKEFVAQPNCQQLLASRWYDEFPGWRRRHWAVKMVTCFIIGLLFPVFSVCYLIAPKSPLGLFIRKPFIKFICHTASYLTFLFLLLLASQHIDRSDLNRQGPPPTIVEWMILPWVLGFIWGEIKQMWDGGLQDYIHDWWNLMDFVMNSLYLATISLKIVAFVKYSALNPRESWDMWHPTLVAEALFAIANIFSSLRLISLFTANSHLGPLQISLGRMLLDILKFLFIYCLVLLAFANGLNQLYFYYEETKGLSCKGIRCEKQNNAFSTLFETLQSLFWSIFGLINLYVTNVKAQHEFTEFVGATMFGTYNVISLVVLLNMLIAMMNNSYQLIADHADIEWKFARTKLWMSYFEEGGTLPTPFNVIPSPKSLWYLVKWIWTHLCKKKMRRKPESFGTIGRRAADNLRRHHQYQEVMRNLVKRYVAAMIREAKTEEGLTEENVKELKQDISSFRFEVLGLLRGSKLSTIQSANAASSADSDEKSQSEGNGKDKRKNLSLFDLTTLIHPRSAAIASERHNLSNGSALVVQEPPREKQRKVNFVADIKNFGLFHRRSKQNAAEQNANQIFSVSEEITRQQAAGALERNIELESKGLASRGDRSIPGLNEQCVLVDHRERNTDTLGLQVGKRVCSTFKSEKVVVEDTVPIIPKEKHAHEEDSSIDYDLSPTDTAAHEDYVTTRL

[5] = cytotoxicity toward NIH3T3 fibroblasts, dose response, counter-screen, cell-based, ATP luminescence, mouse fibroblasts (AID 2010); format: functional;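 also: cells exposed to compound for about 90 hours before reading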
[6] = off-target signal loss in HeLa-CEM21 co-culture – HeLa F-luc CTL cells, cherry-picked, counter-screen for HIV-1 Env fusion inhibitor project, dose response (AID 652040); format: functional, cell-based;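 also: potency for signal decrease marking cytotoxic or nonspecific inhibition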
[7] = target: T4, Fatty acid synthase (Homo sapiens, UniProt P49327); assay: FAS thioesterase domain inhibitors, dose response, biochemical, endpoint fluorescence intensity, uHTS hits (AID 624327); format: functional;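 also: fluorescence from hydrolysis of an O-methyl fluorescein acyl ester substrate by the enzyme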
T4 sequence (P49327 whole entry, the tested form may be a part): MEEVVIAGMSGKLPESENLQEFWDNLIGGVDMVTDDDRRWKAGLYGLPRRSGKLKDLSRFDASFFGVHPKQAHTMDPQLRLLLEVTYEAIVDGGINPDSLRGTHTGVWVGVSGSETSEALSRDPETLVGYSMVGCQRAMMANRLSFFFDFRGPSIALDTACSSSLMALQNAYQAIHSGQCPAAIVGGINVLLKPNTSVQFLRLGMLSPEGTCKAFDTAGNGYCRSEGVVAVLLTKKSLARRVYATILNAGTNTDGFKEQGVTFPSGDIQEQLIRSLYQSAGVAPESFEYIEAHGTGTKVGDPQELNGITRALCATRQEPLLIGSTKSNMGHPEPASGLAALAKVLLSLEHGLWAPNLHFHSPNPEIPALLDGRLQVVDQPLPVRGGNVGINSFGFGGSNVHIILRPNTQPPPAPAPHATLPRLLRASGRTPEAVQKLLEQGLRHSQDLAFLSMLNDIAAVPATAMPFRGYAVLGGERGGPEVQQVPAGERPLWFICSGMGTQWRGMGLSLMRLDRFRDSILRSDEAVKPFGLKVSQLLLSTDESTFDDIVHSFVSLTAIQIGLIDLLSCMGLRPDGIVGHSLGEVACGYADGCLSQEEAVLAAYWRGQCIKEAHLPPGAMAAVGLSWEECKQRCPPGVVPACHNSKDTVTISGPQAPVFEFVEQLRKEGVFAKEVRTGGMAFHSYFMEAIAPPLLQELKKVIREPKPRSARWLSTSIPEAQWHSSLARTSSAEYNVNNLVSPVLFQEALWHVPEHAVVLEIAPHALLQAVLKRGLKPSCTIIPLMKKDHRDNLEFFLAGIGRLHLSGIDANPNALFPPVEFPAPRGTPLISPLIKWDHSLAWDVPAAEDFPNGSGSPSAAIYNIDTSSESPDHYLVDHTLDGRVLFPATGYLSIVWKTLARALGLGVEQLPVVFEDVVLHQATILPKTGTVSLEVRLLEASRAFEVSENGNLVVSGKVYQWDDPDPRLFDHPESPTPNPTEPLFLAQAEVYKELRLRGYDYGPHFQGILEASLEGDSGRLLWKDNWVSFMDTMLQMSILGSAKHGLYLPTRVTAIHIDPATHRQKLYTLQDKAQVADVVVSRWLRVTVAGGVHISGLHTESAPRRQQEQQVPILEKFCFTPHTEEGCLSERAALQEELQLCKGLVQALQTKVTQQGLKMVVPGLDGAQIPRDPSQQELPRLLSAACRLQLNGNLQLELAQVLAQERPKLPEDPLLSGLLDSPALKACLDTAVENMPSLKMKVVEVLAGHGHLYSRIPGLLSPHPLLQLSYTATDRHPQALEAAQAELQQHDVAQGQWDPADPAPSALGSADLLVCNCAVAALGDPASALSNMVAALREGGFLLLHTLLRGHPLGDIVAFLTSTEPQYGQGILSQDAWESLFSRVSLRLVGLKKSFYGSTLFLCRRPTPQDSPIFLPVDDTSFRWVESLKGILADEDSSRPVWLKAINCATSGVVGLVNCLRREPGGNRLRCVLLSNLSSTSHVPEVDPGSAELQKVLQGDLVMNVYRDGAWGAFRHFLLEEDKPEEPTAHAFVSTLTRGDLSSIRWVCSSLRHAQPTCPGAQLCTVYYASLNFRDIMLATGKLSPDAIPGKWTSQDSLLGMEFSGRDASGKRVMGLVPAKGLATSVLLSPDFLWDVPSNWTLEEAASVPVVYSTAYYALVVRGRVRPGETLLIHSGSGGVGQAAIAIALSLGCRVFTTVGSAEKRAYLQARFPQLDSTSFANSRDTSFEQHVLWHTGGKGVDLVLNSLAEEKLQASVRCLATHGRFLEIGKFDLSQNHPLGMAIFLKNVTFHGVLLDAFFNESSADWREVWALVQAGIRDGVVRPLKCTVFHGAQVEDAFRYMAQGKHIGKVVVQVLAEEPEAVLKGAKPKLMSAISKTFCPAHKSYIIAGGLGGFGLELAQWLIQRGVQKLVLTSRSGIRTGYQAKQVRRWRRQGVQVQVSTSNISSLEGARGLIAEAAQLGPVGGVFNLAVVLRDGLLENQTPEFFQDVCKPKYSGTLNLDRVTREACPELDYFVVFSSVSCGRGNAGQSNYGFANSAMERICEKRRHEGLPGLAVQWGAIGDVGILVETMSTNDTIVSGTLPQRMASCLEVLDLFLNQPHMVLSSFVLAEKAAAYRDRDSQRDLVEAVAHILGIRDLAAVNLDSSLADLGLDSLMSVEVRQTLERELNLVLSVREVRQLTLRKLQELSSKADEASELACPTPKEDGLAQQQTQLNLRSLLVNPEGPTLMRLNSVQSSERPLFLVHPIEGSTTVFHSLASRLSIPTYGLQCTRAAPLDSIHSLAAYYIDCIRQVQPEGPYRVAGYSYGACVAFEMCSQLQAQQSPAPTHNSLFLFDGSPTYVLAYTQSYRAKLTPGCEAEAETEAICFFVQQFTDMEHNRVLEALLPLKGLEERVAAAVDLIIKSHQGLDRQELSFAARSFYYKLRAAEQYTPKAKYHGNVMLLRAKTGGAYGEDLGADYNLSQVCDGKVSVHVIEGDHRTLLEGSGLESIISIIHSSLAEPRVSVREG

[8] = inhibitors of HIV Env-driven cell fusion, dose response, cherry-pick (AID 652057); format: functional, cell-based
[9] = inhibitors of intracellular T. cruzi replication, confirmation, NIH3T3 host cells, beta-gal luminescence (AID 2044); format: functional, cell-based;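 also: intracellular parasites grown in NIH/3T3 mouse fibroblasts as host cells; luminescent beta-galactosidase reporter signal from transgenic T. cruzi replicating inside host cells; inhibitors lower the luminescence signal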
[10] = target: T4, Fatty acid synthase; assay: FAS thioesterase domain inhibitors, dose response, biochemical, kinetic fluorescence intensity (AID 624326); format: functional;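 also: rate of fluorescence rise from hydrolysis of a fluorogenic O-methyl fluorescein ester substrate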
[11] = inhibitors of clade B AD8 Env fusion, dose response, cell-based, cherry-pick (AID 652062); format: functional;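 also: luciferase signal from cell-cell fusion driven by HIV-1 clade B AD8 Env; potency is for inhibitors of fusion seen as a drop in luminescence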
[12] = target: T5, RNA-binding protein pos-1 (Caenorhabditis elegans, UniProt G5EF15); assay: inhibitors of POS-1/mex-3 RNA binding, dose response, biochemical, fluorescence polarization (AID 1964);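 also: purified POS-1 fused to maltose binding protein made in E. coli; potency of compounds blocking POS-1 binding to fluorescent RNA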
T5 sequence (G5EF15 whole entry): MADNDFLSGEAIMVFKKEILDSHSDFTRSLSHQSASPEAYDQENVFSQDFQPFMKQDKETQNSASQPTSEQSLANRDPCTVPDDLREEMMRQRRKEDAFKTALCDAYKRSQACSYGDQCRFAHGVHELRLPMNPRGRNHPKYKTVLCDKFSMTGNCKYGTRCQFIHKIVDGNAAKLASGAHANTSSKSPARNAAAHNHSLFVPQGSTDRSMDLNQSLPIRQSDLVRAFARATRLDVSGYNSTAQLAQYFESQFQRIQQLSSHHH

[13] = target: Genome polyprotein (dengue virus type 2, UniProt P29990); assay: Dengue-2 NS5 methyltransferase inhibitors, primary screen, biochemical, confirmation dose response (AID 588689); format: functional
Sequence of Genome polyprotein (P29990 2492-3391 limits assumed): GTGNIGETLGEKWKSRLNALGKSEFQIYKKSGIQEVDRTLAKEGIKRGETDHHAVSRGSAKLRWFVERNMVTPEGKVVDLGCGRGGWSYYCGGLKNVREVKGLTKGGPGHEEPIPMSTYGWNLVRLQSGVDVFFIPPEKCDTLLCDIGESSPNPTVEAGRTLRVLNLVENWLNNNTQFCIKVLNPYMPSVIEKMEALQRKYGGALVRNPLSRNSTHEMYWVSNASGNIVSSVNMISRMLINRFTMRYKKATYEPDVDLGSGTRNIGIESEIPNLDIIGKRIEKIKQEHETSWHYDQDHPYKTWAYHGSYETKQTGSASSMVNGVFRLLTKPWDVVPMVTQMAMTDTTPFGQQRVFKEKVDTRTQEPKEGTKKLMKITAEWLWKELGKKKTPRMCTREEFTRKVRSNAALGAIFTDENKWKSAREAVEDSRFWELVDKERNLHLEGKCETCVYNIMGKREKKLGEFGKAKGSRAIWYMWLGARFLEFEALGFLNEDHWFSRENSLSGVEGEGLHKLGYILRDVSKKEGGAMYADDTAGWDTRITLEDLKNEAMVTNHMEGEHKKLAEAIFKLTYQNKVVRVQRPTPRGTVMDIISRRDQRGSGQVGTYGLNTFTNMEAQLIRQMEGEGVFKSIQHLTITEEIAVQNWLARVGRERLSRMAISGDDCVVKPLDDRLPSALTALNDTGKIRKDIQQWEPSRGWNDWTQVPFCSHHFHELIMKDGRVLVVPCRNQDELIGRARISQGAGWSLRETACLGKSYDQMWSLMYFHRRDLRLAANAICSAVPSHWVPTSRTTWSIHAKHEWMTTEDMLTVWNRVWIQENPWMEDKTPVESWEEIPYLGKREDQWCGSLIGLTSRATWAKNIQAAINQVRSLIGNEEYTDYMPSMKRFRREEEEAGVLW

[14] = target: T6, Zinc finger protein mex-5 (Caenorhabditis elegans, UniProt Q9XUB2); assay: MEX-5/TCR-2 RNA interaction inhibitors, dose response, biochemical, C. elegans, fluorescence polarization (AID 1960)
T6 sequence (Q9XUB2 whole entry): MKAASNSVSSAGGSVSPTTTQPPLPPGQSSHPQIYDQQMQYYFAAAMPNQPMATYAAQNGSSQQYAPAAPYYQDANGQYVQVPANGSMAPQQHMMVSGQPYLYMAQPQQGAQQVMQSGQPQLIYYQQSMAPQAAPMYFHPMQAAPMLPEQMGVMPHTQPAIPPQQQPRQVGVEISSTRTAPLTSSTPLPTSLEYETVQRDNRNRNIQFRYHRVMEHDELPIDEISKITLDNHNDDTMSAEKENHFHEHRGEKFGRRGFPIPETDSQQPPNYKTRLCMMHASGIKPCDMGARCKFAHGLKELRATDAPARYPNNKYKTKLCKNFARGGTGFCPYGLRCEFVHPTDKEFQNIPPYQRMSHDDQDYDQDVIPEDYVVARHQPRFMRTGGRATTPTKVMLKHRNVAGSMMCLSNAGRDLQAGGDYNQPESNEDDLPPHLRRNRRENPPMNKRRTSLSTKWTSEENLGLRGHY

[15] = Luminescence Cell-Based Dose Confirmation HTS to Identify Inhibitors of Platelet Dense Granule Release. [Related pubchem assays: 1663 (Primary HTS), 1678 (Summary of Project)]; format: functional
[16] = target: Luciferin 4-monooxygenase (Photinus pyralis, UniProt P08659); assay: firefly luciferase enzyme inhibitors, dose response, biochemical, luminescence (AID 1891)
Sequence of Luciferin 4-monooxygenase (P08659 whole entry): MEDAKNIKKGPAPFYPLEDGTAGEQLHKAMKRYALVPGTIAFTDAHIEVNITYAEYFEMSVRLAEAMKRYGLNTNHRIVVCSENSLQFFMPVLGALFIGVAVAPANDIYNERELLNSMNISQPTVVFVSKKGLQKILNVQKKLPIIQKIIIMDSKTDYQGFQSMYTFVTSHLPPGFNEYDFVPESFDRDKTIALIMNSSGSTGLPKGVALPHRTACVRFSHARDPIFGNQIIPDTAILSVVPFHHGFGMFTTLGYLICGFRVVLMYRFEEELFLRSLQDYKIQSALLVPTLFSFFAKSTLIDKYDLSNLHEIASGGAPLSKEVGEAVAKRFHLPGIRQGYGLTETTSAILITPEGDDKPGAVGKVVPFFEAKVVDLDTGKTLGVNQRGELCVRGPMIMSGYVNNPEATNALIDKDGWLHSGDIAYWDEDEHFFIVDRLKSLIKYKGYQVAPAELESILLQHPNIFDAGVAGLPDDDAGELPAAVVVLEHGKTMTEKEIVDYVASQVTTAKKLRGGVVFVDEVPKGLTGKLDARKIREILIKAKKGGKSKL

[17] = intracellular Trypanosoma cruzi inhibitors in host cells – cell-based, plate reader, cherry-pick samples, set 3, dose response (AID 651818); format: functional;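 also: compounds incubated with infected cells for about four days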

COc1ccc(C2=Nn3c(nnc3-c3ccco3)SC2)cc1
IC50 [1]: 9.61 µM (not active)

COc1cc(OC)c(NS(=O)(=O)c2ccc(Cl)c(C(=O)OC(C)C(=O)N3CCCC3)c2)cc1Cl (stereo not given)
IC50 [2]: 38.6 µM (active)

Oc1ccc(C[C@@H]2CN=C(S)N2CCCCC2CCCCC2)cc1
AC50 [3]: 5.41 µM (active) | IC50 [1]: 12.2 µM (not active)

O=C1c2ccc(Br)cc2C(=O)N1c1ccc(Cc2ccncc2)cc1
IC50 [1]: 4.86 µM (not active)

COc1ccc(C(CNC(=O)c2cccc(Br)c2)N2CCCC2)cc1 (stereo not given)
EC50 [4]: 1.68 µM (active)

CCOC(=O)NN1C(=O)c2ccccc2NC12CCCC2
IC50 [2]: 32.6 µM (active)

Cn1c(NCc2ccco2)nc2c1c(=O)n(Cc1ccc(Cl)c(Cl)c1)c(=O)n2C
IC50 [1]: 4.09 µM (not active)

Cc1c(O)ccc(C(=O)CN2C(=O)c3ccccc3C2=O)c1O
IC50 [1]: 7.96 µM (not active)

O=C1c2ccccc2C(=O)N1CCCCCc1nc(-c2ccccc2)no1
IC50 [1]: 3.34 µM (not active)

COc1ccc(C(=O)Nc2cc(C)ccc2NC(=O)COc2ccccc2)cc1
IC50 [1]: 1.51 µM (not active)

CS(=O)(=O)N1CCc2cc(-c3csc(NC(=O)Cc4cccs4)n3)ccc21
EC50 [5]: > 60 µM (not active) | AC50 [6]: 27.1 µM (active) | IC50 [7]: 6.53 µM (active) | AC50 [8]: 27.1 µM (active) | EC50 [9]: 0.586 µM (active) | IC50 [10]: 9.27 µM (active) | AC50 [11]: 9.65 µM (active)

O=C(NC1CCCCC1)NC1CCN(C(=S)NCc2ccco2)CC1
IC50 [2]: 66.3 µM (active)

Cc1cc(/C=C2\C(=O)NC(=O)N(c3ccccc3)C2=O)c(C)n1-c1ccc(C(=O)O)c(Cl)c1
EC50 [12]: > 300 µM (not active) | IC50 [13]: 63.7 µM (active) | EC50 [14]: > 300 µM (not active)

CCN1CCN(c2ccc(S(=O)(=O)N3CCOCC3)cc2NC(=O)C(C)Oc2cccc(Cl)c2)CC1 (stereo not given)
EC50 [4]: 5.96 µM (active)

COc1ccc(C(CNC(=O)CN2C(=O)NC3(CCCC3)C2=O)N(C)C)cc1 (stereo not given)
EC50 [4]: 3.76 µM (active)

CCOC(=O)C(=CN=C(N)Nc1nc2ccccc2o1)C(=O)OCC
IC50 [2]: 79.2 µM (active)

O=C(NCCc1ccccn1)C(F)(F)C(F)(F)C(F)(F)C(F)(F)C(F)(F)C(F)F
EC50 [15]: > 112 µM (not active) | EC50 [4]: 4.73 µM (active) | EC50 [16]: > 112 µM (not active)

COc1ccc(C(=O)N2c3cc4c(cc3C(C)=CC2(C)C)OCO4)cc1
IC50 [1]: 6.36 µM (not active)

Cc1ccc(S(=O)(=O)Oc2ccccc2C=C2C(=O)NC(=O)NC2=O)cc1
IC50 [13]: 36.8 µM (active)

O=C(O)CN1C(=O)/C(=C\c2ccccc2OCc2ccccc2)SC1=S
IC50 [13]: 35.8 µM (active)

CCOc1cc(/C=N/NC2=NC(=O)C(CC(=O)O)S2)ccc1OS(=O)(=O)c1ccc(C)cc1 (stereo not given)
IC50 [2]: 47.8 µM (active)

Cc1ccc(S(=O)(=O)Nc2ccc3c(c2)CC(=O)N([C@@H](C)CO)C[C@@H](C)[C@@H](CN(C)Cc2ccc(C(F)(F)F)cc2)O3)cc1
AC50 [17]: 2.03 µM (active)

C[C@@H]1CN([C@H](C)CO)C(=O)Cc2cc(NC(=O)Cc3ccccc3)ccc2O[C@@H]1CN(C)Cc1ccc(Cl)c(Cl)c1
AC50 [17]: 2.51 µM (active)

C[C@H]1CN([C@@H](C)CO)C(=O)Cc2cc(NC(=O)c3ccncc3)ccc2O[C@H]1CN(C)Cc1ccc(-c2ccccc2)cc1
AC50 [17]: 1.63 µM (active)

C[C@H]1CN([C@@H](C)CO)C(=O)Cc2cc(NC(=O)Cc3cn(C)c4ccccc34)ccc2O[C@H]1CN(C)Cc1ccc(C(F)(F)F)cc1
AC50 [17]: 1.81 µM (active)

C[C@H](CO)N1C[C@H](C)[C@H](CN(C)S(=O)(=O)c2ccccc2)Oc2ccc(NC(=O)Nc3ccc(C(F)(F)F)cc3)cc2C1=O
AC50 [17]: 1.62 µM (active)

C[C@@H]1CN([C@H](C)CO)C(=O)Cc2cc(N(C)C)ccc2O[C@H]1CN(C)Cc1ccc2c(c1)OCO2
AC50 [17]: 6.22 µM (active)

C[C@H]1CN([C@@H](C)CO)C(=O)Cc2cc(NC(=O)C3CC3)ccc2O[C@@H]1CN(C)Cc1ccc(C(=O)Nc2ccccc2N)cc1
AC50 [17]: 3.59 µM (active)

Cc1ccc(/C=N\NC(=O)C2COc3cc4ccccc4cc3O2)o1 (stereo not given)
EC50 [4]: 1.88 µM (active)
